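Five compound concentrations were applied to cells in 96-well plates for 48 hours; endpoints were derived by simple linear interpolation of the resulting dose-response curve. GI50 = concentration required for 50% inhibition of growth.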 Active and inactive are the calls of the source. Rule as the data show it: active = GI50 up to about 1.1 µM and inactive = higher.
How the values were obtained:
Assay in all cases: NCI-60 cell line screen, 48 h
[1] = system: KM-20L2
[2] = system: M19-MEL
[3] = system: LXFL 529
[4] = system: XF498
[5] = system: DMS-114
[6] = system: DMS-273
[7] = system: HOP-18
[8] = system: SNB-78
[9] = system: RXF 631

SMILES: CCc1cccc(CC)c1NC(=O)C1=C(C)NC(C)=C(C(=O)Nc2c(CC)cccc2CC)C1c1ccc([N+](=O)[O-])cc1
- GI50 [1]: 26.7 µM (inactive)
- GI50 [2]: 21.3 µM (inactive)
- GI50 [3]: 16.8 µM (inactive)
- GI50 [4]: 18.4 µM (inactive)
- GI50 [5]: 15.4 µM (inactive)

SMILES: CCCCOC(=O)C1C2CCC(O2)C1C(=O)OCCCC (stereo not drawn)
- GI50 [6]: > 100 µM (inactive)
- GI50 [1]: > 42.3 µM (inactive)
- GI50 [2]: > 61.2 µM (inactive)
- GI50 [7]: > 100 µM (inactive)
- GI50 [4]: > 100 µM (inactive)
- GI50 [5]: > 39.4 µM (inactive)
- GI50 [8]: > 100 µM (inactive)

SMILES: Cc1cc(NC(=O)NC(=O)c2ccccc2[N+](=O)[O-])ccc1Oc1ncc(Cl)cn1
- GI50 [6]: 0.0501 µM (active)
- GI50 [1]: 0.0906 µM (active)
- GI50 [2]: 0.316 µM (active)
- GI50 [3]: 0.0773 µM (active)
- GI50 [7]: 23.4 µM (inactive)
- GI50 [4]: 0.0671 µM (active)
- GI50 [5]: 0.0927 µM (active)
- GI50 [8]: 0.0964 µM (active)

SMILES: CC(=O)Nc1ccc(/C=N\N2C(=O)c3ccccc3C2=O)cc1
- GI50 [6]: > 100 µM (inactive)
- GI50 [1]: > 100 µM (inactive)
- GI50 [2]: > 100 µM (inactive)
- GI50 [3]: > 100 µM (inactive)
- GI50 [7]: > 100 µM (inactive)
- GI50 [4]: > 100 µM (inactive)
- GI50 [5]: > 100 µM (inactive)
- GI50 [8]: > 100 µM (inactive)

SMILES: Cc1cccc(NC(=O)/C(=N\NC(C)(C)C)C2NC(=S)NC2=O)c1C (stereo not drawn)
- GI50 [1]: > 100 µM (inactive)
- GI50 [2]: > 100 µM (inactive)
- GI50 [3]: > 100 µM (inactive)
- GI50 [9]: > 100 µM (inactive)
- GI50 [8]: > 100 µM (inactive)

SMILES: C=C(/C=C/C=C(\CO)CCC=C(C)C)[C@H]1CCC2([C@H](CCCO)/C(=C(/C)C=O)CC[C@]2(C)O)[C@H]1O (stereo partly drawn)
- GI50 [6]: > 100 µM (inactive)
- GI50 [1]: > 100 µM (inactive)
- GI50 [2]: > 100 µM (inactive)
- GI50 [3]: > 100 µM (inactive)
- GI50 [7]: 40.9 µM (inactive)
- GI50 [4]: > 100 µM (inactive)
- GI50 [5]: > 100 µM (inactive)
- GI50 [8]: > 100 µM (inactive)

SMILES: Cc1nnc2n1N=C(c1ccccc1)C(c1ccccc1)S2 (stereo not drawn)
- GI50 [6]: 22.3 µM (inactive)
- GI50 [1]: 27.4 µM (inactive)
- GI50 [2]: 43.8 µM (inactive)
- GI50 [3]: 29.4 µM (inactive)
- GI50 [7]: 60.7 µM (inactive)
- GI50 [4]: > 100 µM (inactive)
- GI50 [5]: 25.5 µM (inactive)
- GI50 [8]: 55.5 µM (inactive)

SMILES: COc1ccccc1-n1c(NN)nc2ccc(Br)cc2c1=O
- GI50 [6]: 35.1 µM (inactive)
- GI50 [1]: 39.9 µM (inactive)
- GI50 [2]: 42.5 µM (inactive)
- GI50 [3]: 24.3 µM (inactive)
- GI50 [9]: 45.3 µM (inactive)
- GI50 [7]: 5.18 µM (inactive)
- GI50 [4]: 28.5 µM (inactive)
- GI50 [5]: 33.6 µM (inactive)
- GI50 [8]: 47.6 µM (inactive)

SMILES: C[C@]12CCc3nonc3C1CC[C@@H]1C2CC[C@]2(C)C(=O)/C(=N\O)CC12 (stereo partly drawn)
- GI50 [6]: > 100 µM (inactive)
- GI50 [1]: > 100 µM (inactive)
- GI50 [2]: > 100 µM (inactive)
- GI50 [3]: 77.4 µM (inactive)
- GI50 [9]: > 100 µM (inactive)
- GI50 [7]: > 100 µM (inactive)
- GI50 [4]: > 100 µM (inactive)
- GI50 [5]: > 100 µM (inactive)
- GI50 [8]: > 100 µM (inactive)

SMILES: N/C=N/S(=O)(=O)c1ccc(NC(=O)COC(=O)c2cccc3c(=O)c4ccccc4[nH]c23)cc1
- GI50 [6]: > 100 µM (inactive)
- GI50 [2]: > 100 µM (inactive)
- GI50 [7]: > 100 µM (inactive)
- GI50 [4]: > 100 µM (inactive)
- GI50 [5]: > 100 µM (inactive)

SMILES: O=S(=O)(Sc1ccc(Cl)cc1)c1ccc(Cl)cc1
- GI50 [6]: 15.4 µM (inactive)
- GI50 [1]: 17.8 µM (inactive)
- GI50 [2]: 17.9 µM (inactive)
- GI50 [3]: 16 µM (inactive)
- GI50 [4]: 20.2 µM (inactive)
- GI50 [5]: 15.1 µM (inactive)
- GI50 [8]: 24.2 µM (inactive)

SMILES: Cc1cc2c(c3oc(C(O)(CO)C4CO4)cc(=O)c13)C(=O)c1c(O)cccc1C2=O (stereo not drawn)
- GI50 [6]: < 0.01 µM (active)
- GI50 [1]: < 0.01 µM (active)
- GI50 [2]: < 0.01 µM (active)
- GI50 [3]: < 0.01 µM (active)
- GI50 [9]: < 0.01 µM (active)
- GI50 [7]: < 0.01 µM (active)
- GI50 [4]: < 0.01 µM (active)
- GI50 [5]: < 0.01 µM (active)
- GI50 [8]: 0.031 µM (active)

Reference: ChEMBL document CHEMBL1201862, “PubChem BioAssay data set” (2004)
